Data published in US9855268B2, “Triazolo[4,5-d]pyrimidine derivatives” (Merck Patent GmbH, priority 2013, dated 2018).

Tests used:
GSK3α(h) = GSK3α(h) (Homo sapiens, UniProt P49840); assay: GSK3α radiometric kinase assay (33P-ATP, phospho GS2 peptide); format: biochemical; details: read-out: IC50 GSK3α (enzyme assay)
Protocol: GSK3α(h) is incubated with 8 mM MOPS pH 7,0, 0,2 mM EDTA, 20 μM
[…](p)EDEEE (phosphor GS2 peptide), 10 mM Mg-acetate and [gamma-33P-ATP](specific activity approx. 500 cpm/Pmol, concentration as required). The reaction is initiated by the addition of the MgATP. After incubation for 40 minutes at the room temperature, the Reaction is stopped by the addition of 3% phosphoric acid solution. 10 μL of reaction is then spotted onto a P30 filtermat and washed three times for 5 minutes in 50 mM phosphoric acid and once in methanol prior to drying and scintillation counting.

GCN2 [1] = molecular target: T1, GCN2 (Homo sapiens, UniProt Q9P2K8); assay: Cellular assay of GCN2 activity (phospho-eIF2alpha immunocytochemistry after tryptophanol); format: cell-based; set-up: endogenous in cells; host or cells: U2OS; details: Human U2OS cells, 2 h compound, 600 μM tryptophanol 30 min
Protocol: Cellular Assay for the Determination of Compound Activities
Human U2OS cells (2000 cells/well) are seeded into 384-well plates and incubated for 20 hours.
The next day, the cells are treated with the test compounds and incubated for 2 hours. Then, tryptophanol, at a final concentration of 600 μM, is added to the cells and those are incubated for 30 minutes.
The analysis of cellular GCN2 activities is done by immunocytochemistry.
Briefly, cells are fixated on the well surfaces by formaldehyde and permeabilised with Triton X-100.
The analysis and quantification of phosphorylated GCN2 is done by scanning the plates in the Acumen Explorer system (TTPLabtech). The obtained data are normalised against the untreated control wells (DMSO only) and expressed as % effect values. The determination of IC50 values is done by using the Graph Pad Prism software.
Target sequence in this assay (Q9P2K8 whole entry): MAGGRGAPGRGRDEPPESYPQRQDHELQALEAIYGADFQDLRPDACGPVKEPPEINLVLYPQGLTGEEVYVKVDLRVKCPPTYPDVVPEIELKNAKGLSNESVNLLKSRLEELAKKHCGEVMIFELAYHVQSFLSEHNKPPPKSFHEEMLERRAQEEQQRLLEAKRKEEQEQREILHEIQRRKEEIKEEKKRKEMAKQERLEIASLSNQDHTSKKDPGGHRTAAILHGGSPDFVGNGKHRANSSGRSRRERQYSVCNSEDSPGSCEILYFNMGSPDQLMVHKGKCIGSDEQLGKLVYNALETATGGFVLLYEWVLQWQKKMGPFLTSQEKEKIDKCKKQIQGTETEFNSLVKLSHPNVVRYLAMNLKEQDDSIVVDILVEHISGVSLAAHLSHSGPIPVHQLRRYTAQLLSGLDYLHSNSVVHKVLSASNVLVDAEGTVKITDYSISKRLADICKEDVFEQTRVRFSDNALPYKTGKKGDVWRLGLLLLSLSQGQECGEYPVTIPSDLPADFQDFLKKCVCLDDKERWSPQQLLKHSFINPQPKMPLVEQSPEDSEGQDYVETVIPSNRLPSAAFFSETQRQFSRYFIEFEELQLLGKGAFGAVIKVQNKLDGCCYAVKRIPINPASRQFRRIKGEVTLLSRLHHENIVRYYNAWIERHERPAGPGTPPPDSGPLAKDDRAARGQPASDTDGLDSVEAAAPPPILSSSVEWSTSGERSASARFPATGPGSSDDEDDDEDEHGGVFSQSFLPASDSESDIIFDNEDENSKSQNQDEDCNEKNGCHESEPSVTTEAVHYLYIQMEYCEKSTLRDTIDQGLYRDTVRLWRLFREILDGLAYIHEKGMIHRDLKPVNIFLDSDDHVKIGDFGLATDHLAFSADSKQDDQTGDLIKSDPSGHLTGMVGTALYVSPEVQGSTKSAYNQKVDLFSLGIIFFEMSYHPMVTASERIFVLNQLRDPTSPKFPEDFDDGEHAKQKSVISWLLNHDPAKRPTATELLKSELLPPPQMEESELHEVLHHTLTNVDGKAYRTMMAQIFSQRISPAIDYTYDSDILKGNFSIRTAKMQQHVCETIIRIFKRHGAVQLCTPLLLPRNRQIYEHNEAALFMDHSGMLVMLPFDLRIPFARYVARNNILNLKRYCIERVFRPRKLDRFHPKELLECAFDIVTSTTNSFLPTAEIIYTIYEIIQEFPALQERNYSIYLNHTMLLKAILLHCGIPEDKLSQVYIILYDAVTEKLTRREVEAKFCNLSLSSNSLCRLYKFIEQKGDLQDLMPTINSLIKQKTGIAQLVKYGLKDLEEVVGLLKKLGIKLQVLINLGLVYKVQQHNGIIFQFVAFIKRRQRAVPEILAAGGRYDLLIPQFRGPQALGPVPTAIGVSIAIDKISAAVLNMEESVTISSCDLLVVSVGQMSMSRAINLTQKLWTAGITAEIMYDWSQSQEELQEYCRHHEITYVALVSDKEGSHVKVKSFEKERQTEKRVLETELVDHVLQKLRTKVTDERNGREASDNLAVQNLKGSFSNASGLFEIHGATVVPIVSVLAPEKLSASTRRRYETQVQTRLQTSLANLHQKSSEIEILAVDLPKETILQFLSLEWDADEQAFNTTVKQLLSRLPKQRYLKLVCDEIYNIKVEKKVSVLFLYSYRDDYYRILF

GCN2 [2] = molecular target: T1, GCN2; assay: GCN2 enzyme assay (TR-FRET Lanthascreen, GFP-eIF2alpha phosphorylation); format: biochemical; details: 10 μM ATP, 80 nM GFP-eIF2a, 30 nM GCN2
Outline: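 Kinase reaction with 10 μM ATP and 80 nM GFP-labelled eIF2alpha substrate at room temperature, stopped with EDTA. Phospho-eIF2alpha detected by TR-FRET between antibody and GFP-substrate, excitation at 340 nm.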
Target sequence in this assay (Q9P2K8 whole entry, species assumed): as the sequence (Q9P2K8 whole entry) above

Chain of GSK3α(h) (P49840 whole entry): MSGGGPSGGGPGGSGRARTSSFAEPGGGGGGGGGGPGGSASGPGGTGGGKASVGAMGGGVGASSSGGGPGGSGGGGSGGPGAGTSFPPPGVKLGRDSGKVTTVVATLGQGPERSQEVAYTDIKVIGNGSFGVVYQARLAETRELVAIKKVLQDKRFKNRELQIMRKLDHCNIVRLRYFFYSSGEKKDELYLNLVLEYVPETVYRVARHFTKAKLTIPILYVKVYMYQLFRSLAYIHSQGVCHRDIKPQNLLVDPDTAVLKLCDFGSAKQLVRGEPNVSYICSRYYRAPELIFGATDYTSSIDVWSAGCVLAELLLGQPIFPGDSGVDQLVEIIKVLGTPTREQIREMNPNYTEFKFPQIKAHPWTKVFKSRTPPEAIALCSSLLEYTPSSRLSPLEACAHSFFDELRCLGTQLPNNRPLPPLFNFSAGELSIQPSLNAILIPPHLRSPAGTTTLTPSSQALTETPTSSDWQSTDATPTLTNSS

Row | IC50 (GSK3α(h)) | IC50 (GCN2 [1]) | IC50 (GCN2 [2]) | Compound
1 | < 1 µM | 1 to 5 µM | < 1 µM | Cc1ccc2cc(-n3nnc4cnc(N[C@@H]5CC[C@@H](O)C5)nc43)ccc2n1 (relative stereo) [A202, (trans)-3-[3-(2-methyl-quinolin-6-yl)-3H-[1,2,3]triazolo[4,5-d]pyrimidin-5-ylamino]-cyclopentanol]
2 | < 1 µM | 1 to 5 µM | < 1 µM | N#CCCn1cc(-c2ccc(-n3nnc4cnc(N[C@@H]5CC[C@@H](O)C5)nc43)cc2)cn1 (relative stereo) [A214, 3-(4-{4-[5-(trans-3-hydroxy-cyclopentylamino)-[1,2,3]triazolo[4,5-d]pyrimidin-3-yl]-phenyl}-pyrazol-1-yl)-propionitrile]
3 | < 1 µM | 5 to 10 µM | < 1 µM | NC1CC[C@@H](Nc2ncc3nnn(-c4ccc(-c5cnn(CCO)c5)cc4)c3n2)C1 (stereo in doubt) [A257, 2-(4-{4-[5-((1R,3S)-3-amino-cyclopentylamino)-[1,2,3]triazolo[4,5-d]pyrimidin-3-yl]-phenyl}-pyrazol-1-yl)-ethanol]
4 | < 1 µM | 1 to 5 µM | < 1 µM | COc1ccc(-n2nnc3cnc(N[C@@H]4CC[C@H](CO)C4)nc32)cc1 [A112, {(1S,3R)-3-[3-(4-methoxy-phenyl)-3H-[1,2,3]triazolo[4,5-d]pyrimidin-5-ylamino]-cyclopentyl}-methanol]
5 | < 1 µM | 1 to 5 µM | < 1 µM | COc1ccc(-n2nnc3cnc(N[C@@H]4CC[C@@H](CO)C4)nc32)cc1 [A114, {(1R,3R)-3-[3-(4-methoxy-phenyl)-3H-[1,2,3]triazolo[4,5-d]pyrimidin-5-ylamino]-cyclopentyl}-methanol]
6 | < 1 µM | < 1 µM | < 1 µM | COCCn1cc(-c2ccc(-n3nnc4cnc(N[C@@H]5CC[C@@H](N)C5)nc43)cc2)cn1 [A123, (1R,3R)—N-(3-{4-[1-(2-methoxy-ethyl)-1H-pyrazol-4-yl]-phenyl}-3H-[1,2,3]triazolo[4,5-d]pyrimidin-5-yl)-cyclopentane-1,3-diamine]
7 | < 1 µM | 1 to 5 µM | < 1 µM | N[C@H]1CC[C@H](Nc2ncc3nnn(-c4ccc(OC5CCOCC5)cc4)c3n2)CC1 [A127, N-{3-[4-(tetrahydro-pyran-4-yloxy)-phenyl]-3H-[1,2,3]triazolo[4,5-d]pyrimidin-5-yl}-trans-cyclohexane-1,4-diamine]
8 | – | 5 to 10 µM | < 1 µM | N[C@H]1CC[C@H](Nc2ncc3nnn(-c4ccc(N5CC[C@H](O)C5)cc4)c3n2)CC1 [A128, (S)-1-{4-[5-(4-amino-cyclohexylamino)-[1,2,3]triazolo[4,5-d]pyrimidin-3-yl]-phenyl}-pyrrolidin-3-ol]
9 | < 1 µM | 1 to 5 µM | < 1 µM | Cn1cc(-c2ccc(-n3nnc4cnc(N[C@H]5CC[C@H](N)CC5)nc43)cc2)cn1 [A129, N-{3-[4-(1-methyl-1H-pyrazol-4-yl)-phenyl]-3H-[1,2,3]triazolo[4,5-d]pyrimidin-5-yl}-trans-cyclohexane-1,4-diamine]
10 | < 1 µM | 5 to 10 µM | < 1 µM | CN(C)CCC(=O)N1CC[C@@H](Nc2ncc3nnn(-c4ccc(-c5cnn(C)c5)cc4)c3n2)C1 [A130, 3-dimethylamino-1-((R)-3-{3-[4-(1-methyl-1H-pyrazol-4-yl)-phenyl]-3H-[1,2,3]triazolo[4,5-d]pyrimidin-5-ylamino}-pyrrolidin-1-yl)-propan-1-one]
11 | – | 1 to 5 µM | < 1 µM | COCC(COC)Oc1ccc(-n2nnc3cnc(N[C@@H]4CC[C@@H](C(N)=O)C4)nc32)cc1 [A167, (1R,3R)-3-{3-[4-(2-methoxy-1-methoxymethyl-ethoxy)-phenyl]-3H-[1,2,3]triazolo[4,5-d]pyrimidin-5-ylamino}-cyclopentanecarboxylic acid amide]
12 | – | 1 to 5 µM | < 1 µM | NC(=O)[C@@H]1CC[C@@H](Nc2ncc3nnn(-c4ccc(OC5CCOCC5)cc4)c3n2)C1 [A168, (1R,3R)-3-{3-[4-(tetrahydro-pyran-4-yloxy)-phenyl]-3H-[1,2,3]triazolo[4,5-d]-pyrimidin-5-ylamino}-cyclopentanecarboxylic acid amide]
13 | – | 1 to 5 µM | < 1 µM | NC(=O)[C@@H]1CC[C@@H](Nc2ncc3nnn(-c4ccc(I)cc4)c3n2)C1 [A170, (1R,3R)-3-[3-(4-iodo-phenyl)-3H-[1,2,3]triazolo[4,5-d]pyrimidin-5-ylamino]-cyclopentanecarboxylic acid amide]
14 | – | 5 to 10 µM | < 1 µM | Cn1cc2ccc(-n3nnc4cnc(N[C@@H]5CC[C@@H](C(N)=O)C5)nc43)cc2n1 [A185, (1R,3R)-3-[3-(2-methyl-2H-indazol-6-yl)-3H-[1,2,3]triazolo[4,5-d]pyrimidin-5-ylamino]-cyclopentanecarboxylic acid amide]
15 | – | 1 to 5 µM | < 1 µM | Cn1cc2cc(-n3nnc4cnc(N[C@@H]5CC[C@@H](C(N)=O)C5)nc43)ccc2n1 [A186, (1R,3R)-3-[3-(2-methyl-2H-indazol-5-yl)-3H-[1,2,3]triazolo[4,5-d]pyrimidin-5-ylamino]-cyclopentanecarboxylic acid amide]
16 | – | 1 to 5 µM | < 1 µM | Cc1ccc2cc(-n3nnc4cnc(N[C@@H]5CC[C@H](C(N)=O)C5)nc43)ccc2n1 [A191, (1S,3R)-3-[3-(2-methyl-quinolin-6-yl)-3H-[1,2,3]triazolo[4,5-d]pyrimidin-5-ylamino]-cyclopentanecarboxylic acid amide]
17 | – | 1 to 5 µM | < 1 µM | Cc1ccc2cc(-n3nnc4cnc(N[C@@H]5CC[C@@H](O)C5)nc43)ccc2n1 [A208, (1R,3R)-3-[3-(2-methyl-quinolin-6-yl)-3H-[1,2,3]triazolo[4,5-d]pyrimidin-5-ylamino]-cyclopentanol]
18 | – | 5 to 10 µM | < 1 µM | O=c1cccnn1CCn1cc(-c2ccc(-n3nnc4cnc(N[C@@H]5CC[C@@H](O)C5)nc43)cc2)cn1 [A236, 2-[2-(4-{4-[5-((1R,3R)-3-hydroxy-cyclopentylamino)-[1,2,3]triazolo[4,5-d]-pyrimidin-3-yl]-phenyl}-pyrazol-1-yl)-ethyl]-2H-pyridazin-3-one]
19 | – | 1 to 5 µM | < 1 µM | COc1ccc(-n2nnc3cnc(N[C@@H]4CC[C@@H](C(=O)N(C)C)C4)nc32)cc1 [A243, (1R,3R)-3-[3-(4-methoxy-phenyl)-3H-[1,2,3]triazolo[4,5-d]pyrimidin-5-ylamino]-cyclo pentanecarboxylic acid dimethylamide]
20 | – | 5 to 10 µM | < 1 µM | CCOc1ccc(-n2nnc3cnc(N[C@@H]4CC[C@@H](C(=O)N(C)CC(C)(C)O)C4)nc32)cc1 [A251, (1R,3R)-3-[3-(4-ethoxy-phenyl)-3H-[1,2,3]triazolo[4,5-d]pyrimidin-5-ylamino]-cyclopentanecarboxylic acid (2-hydroxy-2-methyl-propyl)-methyl-amide]
21 | – | < 1 µM | < 1 µM | Cc1ccc2cc(-n3nnc4cnc(N[C@@H]5CC[C@@H](C(=O)NCCC(C)(C)O)C5)nc43)ccc2n1 [A253, (1R,3R)-3-[3-(2-methyl-quinolin-6-yl)-3H-[1,2,3]triazolo[4,5-d]pyrimidin-5-ylamino]-cyclopentanecarboxylic acid (3-hydroxy-3-methyl-butyl)-amide]
22 | – | 5 to 10 µM | < 1 µM | N[C@H]1CC[C@H](Nc2ncc3nnn(-c4ccc(-c5cnn(CCO)c5)cc4)c3n2)CC1 [A256, 2-(4-{4-[5-(trans-4-amino-cyclohexylamino)-[1,2,3]triazolo[4,5-d]pyrimidin-3-yl]-phenyl}-pyrazol-1-yl)-ethanol]
23 | – | 5 to 10 µM | < 1 µM | NC(=O)[C@@H]1CC[C@@H](Nc2ncc3nnn(-c4ccc(O)cc4)c3n2)C1 [A276, (1R,3R)-3-[3-(4-hydroxy-phenyl)-3H-[1,2,3]triazolo[4,5-d]pyrimidin-5-ylamino]-cyclopentanecarboxylic acid amide]
24 | – | 1 to 5 µM | < 1 µM | COC(=O)CCOc1ccc(-n2nnc3cnc(N[C@@H]4CC[C@@H](C(N)=O)C4)nc32)cc1 [A292, 3-{4-[5-((1R,3R)-3-carbamoyl-cyclopentylamino)-[1,2,3]triazolo[4,5-d]pyrimidin-3-yl]-phenoxy}-propionic acid methyl ester]
25 | – | 5 to 10 µM | < 1 µM | Cn1cc(CNc2ncc3nnn(-c4ccc5ncccc5c4)c3n2)cn1 [B1, (1-methyl-1H-pyrazol-4-ylmethyl)-(3-quinolin-6-yl-3H-[1,2,3]triazolo[4,5-d]pyrimidin-5-yl)-amine]
